According to patent publication US20260199564A1, “METHOD OF PREVENTING BLOOD COAGULATION AND DRUG-ELUTING IMPLANT FOR PERCUTANEOUS CORONARY INTERVENTION” (priority 2023, published 2026):

What was measured:
hERG channel = molecular target: T1, hERG channel (Homo sapiens, UniProt Q12809); assay: Predictor hERG fluorescence polarization (FP) binding assay
T1 construct: purchased
Procedure: • a. Primary stock solutions of 3 mM CK and astemizole in 100% DMSO were diluted in 3-fold serial dilutions in the same solvent to obtain 16 different concentrations ranging from 3 mM to […]. These solutions were further diluted 25-fold with FP (fluorescence polarization) assay buffer and then transferred to the assay plate. • b. Each test solution in the assay plate was further diluted 4-fold with FP assay buffer. Predictor™ hERG membrane preparations were thawed at room temperature and sonicated. Predictor™ hERG Tracer Red (250 nM) was diluted to 4 nM with hERG FP assay buffer. All experiments were performed in FP assay buffer containing […].
• a. The FP assay was carried out using Predictor™ hERG Fluorescence Polarization Assay Kit. The binding assay was conducted following the manufacturer's recommended protocol with some modifications. Aliquots (5 μL) of each concentration of test article of reference were pipetted into the appropriate wells of a black 384-well micro-plate containing 10 μL of hERG membrane and 5 μL of 4 nM fluorescent tracer and covered with plate lid to protect the reagents exposed to from light. • b. The experiments were performed using triplicate wells for each concentration. Following a 3-hour incubation at room temperature, the microplates were read on a Tecan Infinite® F200 plate reader using polarized excitation filter setting at 535 nm and emission filter setting at 590 nm (25 and 20 nm bandwidths, respectively). Assay robustness was assessed by measuring 16 replicates positive control wells (containing 30 μM E-4031, known hERG channel blocker, in FP assay mixture) and negative control wells (no hERG channel blocker in FP assay mixture).
• a. To evaluate the robustness of the hERG assays, the signal-to-noise ratio was quantified by calculating Z′-factor for each assay. In statistics, the Z′-factor provides a way to evaluate the quality of the assay. […]. Z′-factor values were determined using the blank subtracted polarization values from 16 wells of • negative and positive controls using the formula of Zhang et al. […]

CYP2B6 = molecular target: T2, CYP2B6 (Homo sapiens, UniProt P20813); assay: Cytochrome P450 inhibition in human liver microsomes using LC-MS/MS, CYP2B6; format: in vitro ADME
T2 construct: with pooled human liver microsomes; from tissue; host or cells: pooled human liver microsomes
T2 sequence (P20813 1-491): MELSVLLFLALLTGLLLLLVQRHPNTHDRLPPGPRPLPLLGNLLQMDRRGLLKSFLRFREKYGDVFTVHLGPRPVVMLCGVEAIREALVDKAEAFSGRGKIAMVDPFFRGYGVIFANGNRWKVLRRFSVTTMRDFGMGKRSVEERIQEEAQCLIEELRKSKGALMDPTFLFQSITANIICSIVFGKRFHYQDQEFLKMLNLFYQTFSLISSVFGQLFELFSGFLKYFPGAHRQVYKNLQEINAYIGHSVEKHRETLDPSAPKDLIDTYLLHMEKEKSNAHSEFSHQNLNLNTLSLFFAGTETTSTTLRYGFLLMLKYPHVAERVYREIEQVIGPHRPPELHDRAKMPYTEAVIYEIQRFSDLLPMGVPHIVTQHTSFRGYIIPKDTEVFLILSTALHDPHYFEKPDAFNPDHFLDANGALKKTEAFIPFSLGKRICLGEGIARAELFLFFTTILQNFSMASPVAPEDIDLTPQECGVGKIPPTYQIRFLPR
Procedure: In IC50 shift experiments, CK (0.2 μL prepared in DMSO) was pre-incubated for 30 min at 37° C., at 8 different concentrations, with pooled human liver microsomes (0.1-1 mg/mL, depending on which enzyme was assessed) in the absence or presence of 1 mM NADPH in 100 μL of potassium phosphate buffer (100 mM, pH 7.4) and MgCl2 (2.5 mM). After the pre-incubation, a substrate mixture containing a probe substrate in 100 μL of potassium phosphate buffer (100 mM, pH 7.4), MgCl2 (2.5 mM), and NADPH (1 mM) was added for measurement of the corresponding P450 activities. Incubations were terminated by addition of 200 μL methanol. Samples were then extracted and centrifuged and the supernatant was subjected to validated LC-MS/MS analysis.

VCAM-1 = assay: LPS-induced VCAM-1 mRNA expression in HUVECs; format: cell-based, human; details: 1, 3, 10 μM for 1 h prior to LPS (1 μg/ml) stimulation for 24 h
Procedure: HUVECs were treated for 1 h with ginsenoside CK (1 μM, 3 μM, and 10 μM) prior to LPS (1 μg/ml) stimulation for 24 h. (A) ICAM-1 (B) VCAM-1 mRNA expression. Values are means±SEM of 3 independent experiments. Statistical significance assessed by one-way ANOVA followed by Scheffe post-hoc test for multiple comparisons (***P<0.01, *P<0.05 vs LPS).
Treatment of HUVECs with LPS (1 μg/ml) increased ICAM-1 and VCAM-1 mRNA expression. Twenty-four hours after LPS treatment, maximal expression of ICAM-1 and VCAM-1 was attained. To determine whether LPS-stimulated ICAM-1 and VCAM-1 mRNA expression is affected by ginsenoside CK, HUVECs were treated for 1 h with ginsenoside CK (1 μM, 3 μM, and 10 μM) prior to LPS (1 μg/ml) stimulation for 24 h.

HUVECs = assay: HUVEC cell viability by CCK-8 assay; format: cell-based, human; details: 1 μM, 3 μM, and 10 μM alone for 24 h

T1 sequence (Q12809 whole entry): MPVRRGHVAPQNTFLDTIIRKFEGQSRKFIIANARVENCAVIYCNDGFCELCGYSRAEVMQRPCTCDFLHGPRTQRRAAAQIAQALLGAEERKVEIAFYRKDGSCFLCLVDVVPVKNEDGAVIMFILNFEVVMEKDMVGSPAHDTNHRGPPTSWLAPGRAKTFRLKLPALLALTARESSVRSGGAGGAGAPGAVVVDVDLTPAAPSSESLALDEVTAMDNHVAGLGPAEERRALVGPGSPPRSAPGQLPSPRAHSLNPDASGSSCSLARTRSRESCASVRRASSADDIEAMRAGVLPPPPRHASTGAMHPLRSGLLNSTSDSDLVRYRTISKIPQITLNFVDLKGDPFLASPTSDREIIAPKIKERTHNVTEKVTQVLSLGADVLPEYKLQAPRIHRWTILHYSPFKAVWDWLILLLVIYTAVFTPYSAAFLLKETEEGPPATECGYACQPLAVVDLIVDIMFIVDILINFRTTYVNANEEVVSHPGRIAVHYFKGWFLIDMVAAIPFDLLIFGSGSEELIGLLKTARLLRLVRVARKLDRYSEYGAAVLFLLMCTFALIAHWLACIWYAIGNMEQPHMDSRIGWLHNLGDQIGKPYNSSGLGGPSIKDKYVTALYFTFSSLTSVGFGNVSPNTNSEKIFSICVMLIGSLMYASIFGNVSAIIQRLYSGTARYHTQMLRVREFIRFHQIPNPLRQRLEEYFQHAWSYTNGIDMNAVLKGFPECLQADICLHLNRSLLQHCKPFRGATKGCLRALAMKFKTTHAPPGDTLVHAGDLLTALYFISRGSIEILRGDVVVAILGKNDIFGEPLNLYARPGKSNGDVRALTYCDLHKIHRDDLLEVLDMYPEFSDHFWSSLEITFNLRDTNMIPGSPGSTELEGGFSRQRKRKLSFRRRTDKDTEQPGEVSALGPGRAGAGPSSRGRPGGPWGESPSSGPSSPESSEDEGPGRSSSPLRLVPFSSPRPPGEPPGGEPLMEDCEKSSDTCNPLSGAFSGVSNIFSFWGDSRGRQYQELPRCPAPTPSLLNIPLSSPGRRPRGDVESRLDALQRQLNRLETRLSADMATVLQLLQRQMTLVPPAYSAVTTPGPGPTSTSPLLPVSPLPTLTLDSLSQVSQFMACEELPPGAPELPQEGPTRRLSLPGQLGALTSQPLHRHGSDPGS

CC(C)=CCC[C@](C)(O[C@@H]1O[C@H](CO)[C@@H](O)[C@H](O)[C@H]1O)[C@H]1CC[C@]2(C)[C@@H]1[C@H](O)C[C@@H]1[C@@]3(C)CC[C@H](O)C(C)(C)[C@@H]3CC[C@]12C [CK, Ginsenoside compound K]
blocking effect for binding of tracer to the hERG membrane protein (hERG channel; at 30 μM, triplicate measurements): minor blocking effect | risk classification of potency for hERG blocker (hERG channel; classified from IC50): weak ligand | IC50 (hERG channel; hERG FP assay, triplicate measurements): > 30 µM | IC50 (CYP2B6; pooled human liver microsomes, substrate Bupropion): 14.8 µM | IC50 shift (fold difference) (CYP2B6; ratio of IC50 with −NADPH to IC50 with +NADPH in the 30 min pre-incubation): 1.08 fold | LPS-stimulated VCAM-1 mRNA expression (VCAM-1): significantly inhibited | cell viability (HUVECs): did not influence cell viability
